# pIC50: −log10 of the molar value.
# Assays:
# SK-MEL-2 [1] = test: Growth inhibition of human SK-MEL-2 cells assessed as cell growth at 10 uM incubated for 48 hrs by sulforhodamine B assay relative to control; format: functional; details: SK-MEL-2, 48 h, read-out: Activity
# RPMI-8226 = test: Growth inhibition of human RPMI8226 cells incubated for 48 hrs by sulforhodamine B assay; format: functional, cell-based; details: RPMI-8226, 48 h
# NCI-H226 = test: Growth inhibition of human NCI-H226 cells incubated for 48 hrs by sulforhodamine B assay; format: functional, cell-based; details: NCI-H226, 48 h
# SK-MEL-2 [2] = test: Growth inhibition of human SK-MEL-2 cells incubated for 48 hrs by sulforhodamine B assay; format: functional, cell-based; details: SK-MEL-2, 48 h
# SK-MEL-28 [3] = test: Growth inhibition of human SK-MEL-28 cells incubated for 48 hrs by sulforhodamine B assay; format: functional, cell-based; details: SK-MEL-28, 48 h
# OVCAR-3 [4] = test: Growth inhibition of human OVCAR3 cells incubated for 48 hrs by sulforhodamine B assay; format: functional, cell-based; details: OVCAR-3, 48 h
# Hs-578T = test: Growth inhibition of human Hs578T cells incubated for 48 hrs by sulforhodamine B assay; format: functional, cell-based
# K562 = test: Growth inhibition of human K562 cells assessed as cell growth at 0.01 uM incubated for 48 hrs by sulforhodamine B assay relative to control; format: functional; details: K562, 48 h, read-out: Activity
# SF-295 = test: Growth inhibition of human SF295 cells assessed as cell growth at 0.01 uM incubated for 48 hrs by sulforhodamine B assay relative to control; format: functional; details: SF-295, 48 h, read-out: Activity
# Malme-3M [5] = test: Growth inhibition of human MALME-3M cells assessed as cell growth at 0.01 uM incubated for 48 hrs by sulforhodamine B assay relative to control; format: functional; details: read-out: Activity
# SK-MEL-5 = test: Growth inhibition of human SK-MEL-5 cells assessed as cell growth at 0.01 uM incubated for 48 hrs by sulforhodamine B assay relative to control; format: functional; details: SK-MEL-5, 48 h, read-out: Activity
# OVCAR-3 [6] = test: Growth inhibition of human OVCAR3 cells assessed as cell growth at 0.01 uM incubated for 48 hrs by sulforhodamine B assay relative to control; format: functional; details: OVCAR-3, 48 h, read-out: Activity
# OVCAR-8 = test: Growth inhibition of human OVCAR8 cells assessed as cell growth at 0.01 uM incubated for 48 hrs by sulforhodamine B assay relative to control; format: functional; details: OVCAR-8, 48 h, read-out: Activity
# 786-0 = test: Growth inhibition of human 786-0 cells assessed as cell growth at 0.01 uM incubated for 48 hrs by sulforhodamine B assay relative to control; format: functional; details: 786-0, 48 h, read-out: Activity
# ACHN = test: Growth inhibition of human ACHN cells assessed as cell growth at 0.01 uM incubated for 48 hrs by sulforhodamine B assay relative to control; format: functional; details: read-out: Activity
# SNB-75 = test: Growth inhibition of human SNB75 cells assessed as cell growth at 0.1 uM incubated for 48 hrs by sulforhodamine B assay relative to control; format: functional; details: SNB-75, 48 h, read-out: Activity
# SK-MEL-28 [7] = test: Growth inhibition of human SK-MEL-28 cells assessed as cell growth at 0.1 uM incubated for 48 hrs by sulforhodamine B assay relative to control; format: functional; details: SK-MEL-28, 48 h, read-out: Activity
# UACC-62 = test: Growth inhibition of human UACC62 cells assessed as cell growth at 0.1 uM incubated for 48 hrs by sulforhodamine B assay relative to control; format: functional; details: UACC-62, 48 h, read-out: Activity
# SK-OV-3 = test: Growth inhibition of human SKOV3 cells assessed as cell growth at 0.1 uM incubated for 48 hrs by sulforhodamine B assay relative to control; format: functional; details: SK-OV-3, 48 h, read-out: Activity
# MDA-MB-468 = test: Growth inhibition of human MDA-MB-468 cells assessed as cell growth at 0.1 uM incubated for 48 hrs by sulforhodamine B assay relative to control; format: functional; details: MDA-MB-468, 48 h, read-out: Activity
# HL-60(TB) = test: Growth inhibition of human HL-60(TB) cells assessed as cell growth at 1 uM incubated for 48 hrs by sulforhodamine B assay relative to control; format: functional; details: HL-60, 48 h, read-out: Activity
# COLO 205 = test: Growth inhibition of human COLO205 cells assessed as cell growth at 1 uM incubated for 48 hrs by sulforhodamine B assay relative to control; format: functional; details: COLO 205, 48 h, read-out: Activity
# HCC 2998 = test: Growth inhibition of human HCC2998 cells assessed as cell growth at 1 uM incubated for 48 hrs by sulforhodamine B assay relative to control; format: functional; details: HCC 2998, 48 h, read-out: Activity
# HCT-116 = test: Growth inhibition of human HCT116 cells assessed as cell growth at 1 uM incubated for 48 hrs by sulforhodamine B assay relative to control; format: functional; details: HCT-116, 48 h, read-out: Activity
# OVCAR-4 = test: Growth inhibition of human OVCAR4 cells assessed as cell growth at 1 uM incubated for 48 hrs by sulforhodamine B assay relative to control; format: functional; details: OVCAR-4, 48 h, read-out: Activity
# NCI-H23 = test: Growth inhibition of human NCI-H23 cells assessed as cell growth at 100 uM incubated for 48 hrs by sulforhodamine B assay relative to control; format: functional; details: NCI-H23, 48 h, read-out: Activity
# Malme-3M [8] = test: Growth inhibition of human MALME-3M cells assessed as cell growth at 100 uM incubated for 48 hrs by sulforhodamine B assay relative to control; format: functional; details: read-out: Activity
# IGROV-1 = test: Growth inhibition of human IGROV1 cells assessed as cell growth at 100 uM incubated for 48 hrs by sulforhodamine B assay relative to control; format: functional; details: IGROV-1, 48 h, read-out: Activity
# [9] = read-out: LC50 (the source's name)
# [10] = read-out: pLC50 (the source's name) (converted)
compound,measurement,setting,value
O=C(Nc1cccc(-n2cc(-c3ccncc3)c(-c3cc(O)cc(Cl)c3)n2)c1)Nc1ccc(Cl)c(C(F)(F)F)c1,growth at 10 µM,SK-MEL-2 [1],-38%
same,pIC50,RPMI-8226,5.71
same,GI50,RPMI-8226; read-out: GI50,1960 nM
same,CC50,RPMI-8226; [9],> 100 µM
same,TGI,RPMI-8226; read-out: TGI,50 µM
same,GI50,RPMI-8226; read-out: pGI50 (converted),1950 nM
same,CC50,RPMI-8226; [10],> 100 µM
same,TGI,RPMI-8226; read-out: pTGI (converted),5.13 µM
same,GI50,NCI-H226; read-out: GI50,2470 nM
same,LC50,NCI-H226; read-out: LC50,> 100 µM
same,TGI,NCI-H226; read-out: TGI,89.6 µM
same,GI50,NCI-H226; read-out: pGI50 (converted),2450 nM
same,LC50,NCI-H226; read-out: pLC50 (converted),> 100 µM
same,TGI,NCI-H226; read-out: pTGI (converted),8.91 µM
same,GI50,SK-MEL-2 [2]; read-out: GI50,2200 nM
same,CC50,SK-MEL-2 [2]; [9],94.2 µM
same,TGI,SK-MEL-2 [2]; read-out: TGI,45.5 µM
same,GI50,SK-MEL-2 [2]; read-out: pGI50 (converted),2240 nM
same,CC50,SK-MEL-2 [2]; [10],9.33 µM
same,TGI,SK-MEL-2 [2]; read-out: pTGI (converted),4.57 µM
same,GI50,SK-MEL-28 [3]; read-out: GI50,2010 nM
same,CC50,SK-MEL-28 [3]; [9],25.5 µM
same,TGI,SK-MEL-28 [3]; read-out: TGI,62 µM
same,GI50,SK-MEL-28 [3]; read-out: pGI50 (converted),2000 nM
same,CC50,SK-MEL-28 [3]; [10],26.3 µM
same,TGI,SK-MEL-28 [3]; read-out: pTGI (converted),6.17 µM
same,pIC50,OVCAR-3 [4],5.63
same,GI50,OVCAR-3 [4]; read-out: GI50,2340 nM
same,CC50,OVCAR-3 [4]; [9],> 100 µM
same,TGI,OVCAR-3 [4]; read-out: TGI,50 µM
same,GI50,OVCAR-3 [4]; read-out: pGI50 (converted),2340 nM
same,CC50,OVCAR-3 [4]; [10],> 100 µM
same,TGI,OVCAR-3 [4]; read-out: pTGI (converted),6.61 µM
same,GI50,Hs-578T; read-out: GI50,3.2 µM
same,CC50,Hs-578T; [9],> 100 µM
same,TGI,Hs-578T; read-out: TGI,> 100 µM
same,GI50,Hs-578T; read-out: pGI50 (converted),3.31 µM
same,CC50,Hs-578T; [10],> 100 µM
same,TGI,Hs-578T; read-out: pTGI (converted),> 100 µM
same,growth at 0.01 µM,K562,101%
same,growth at 0.01 µM,SF-295,58%
same,growth at 0.01 µM,Malme-3M [5],93%
same,growth at 0.01 µM,SK-MEL-5,97%
same,growth at 0.01 µM,OVCAR-3 [6],101%
same,growth at 0.01 µM,OVCAR-8,102%
same,growth at 0.01 µM,786-0,98%
same,growth at 0.01 µM,ACHN,104%
same,growth at 0.1 µM,SNB-75,88%
same,growth at 0.1 µM,SK-MEL-28 [7],100%
same,growth at 0.1 µM,UACC-62,102%
same,growth at 0.1 µM,SK-OV-3,104%
same,growth at 0.1 µM,MDA-MB-468,94%
same,growth at 1 µM,HL-60(TB),113%
same,growth at 1 µM,COLO 205,99%
same,growth at 1 µM,HCC 2998,106%
same,growth at 1 µM,HCT-116,91%
same,growth at 1 µM,OVCAR-4,105%
same,growth at 100 µM,NCI-H23,-55%
same,growth at 100 µM,Malme-3M [8],-91%
same,growth at 100 µM,IGROV-1,-41%
